Experimental data published in patent US8389523B2, “Substituted quinoxaline and an agrochemical composition thereof” (Kumiai Chemical Industry Co., Ltd., priority 2007, dated 2013).

Tests used:
Assay type in all cases: in vivo
Design in all cases: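 grade 0 to 5 of growth suppression where 5 is 90% or more and 0 below 10%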
[1] = tested on: Amaranthus viridis L.; assay: Herbicidal effects in upland field soil treatment (Test Example 2); details: 1000 g active ingredient per hectare, 21st day after treatment, criteria of Table 138
Procedure, shortened: (§1)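 Soil-applied before emergence at 1000 g a.i./ha as water-diluted wettable powder; greenhouse-grown plants rated for herbicidal damage 21 days post-treatment.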

[2] = tested on: Abutilon theophrasti medicus; assay: as above; details: 1000 g active ingredient per hectare, 21st day after treatment, criteria of Table 138
Procedure, shortened: as §1

[3] = tested on: Monochoria vaginalis (Burm. f.) Presl var. plantaginea (Roxb.) Solms-Laub.; assay: Herbicidal effects in paddy field soil treatment (Test Example 1); details: paddy field soil treatment; 1000 g of the active ingredient per hectare; wettable powder added dropwise on water surface; 21st day after treatment
Procedure, shortened: (§2)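 Flooded-paddy soil treatment under greenhouse conditions: a diluted wettable powder at 1000 g a.i./ha went onto the water surface one day post-sowing, with 3 cm standing water, and weed control was graded on a scoring scale 21 days after treatment.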

[4] = tested on: Echinochloa oryzicola Vasing; assay: as above; details: paddy field soil treatment; 1000 g of the active ingredient per hectare; wettable powder added dropwise on water surface; 21st day after treatment
Procedure, shortened: as §2

[5] = tested on: Scirpus juncoides Roxb. var. ohwianus. T. Koyama; assay: as above; details: paddy field soil treatment; 1000 g of the active ingredient per hectare; wettable powder added dropwise on water surface; 21st day after treatment
Procedure, shortened: as §2

[6] = tested on: Amaranthus viridis L.; assay: Herbicidal effects in upland field foliar treatment (Test Example 3); details: criteria of Table 138; for herbicidal effect (index) on Amaranthus viridis L.: 1000 g active ingredient per hectare, 14th day after treatment; for herbicidal effects on Amaranthus viridis L.: 1000 g of the active ingredient per hectare, 14th day after the treatment, wettable powder
Procedure, shortened: (§3)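 Post-emergence foliar treatment: two-week-old seedlings from upland field soil received 1000 g a.i./ha (wettable powder, 1000 L water/ha), then returned to the greenhouse for scoring 14 days later.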

[7] = tested on: Abutilon theophrasti medicus; assay: as above; details: criteria of Table 138; for herbicidal effect (index) on Abutilon theophrasti medicus: 1000 g active ingredient per hectare, 14th day after treatment; for herbicidal effects on Abutilon theophrasti medicus: 1000 g of the active ingredient per hectare, 14th day after the treatment, wettable powder
Procedure, shortened: as §3

[8] = tested on: Echinochloa crus-galli (L.) P. Beauv. var. crus-galli; assay: as above; details: criteria of Table 138; for herbicidal effect (index) on Echinochloa crus-galli (L.) P. Beauv. var. crus-galli: 1000 g active ingredient per hectare, 14th day after treatment; for herbicidal effects on Echinochloa crus-galli (L.) P. Beauv. var. crus-galli: 1000 g of the active ingredient per hectare, 14th day after the treatment, wettable powder
Procedure, shortened: as §3

Row | SMILES | herbicidal effect (index) on Amaranthus viridis L. [1] | herbicidal effect (index) on Abutilon theophrasti medicus [2] | Herbicidal effects index, Monochoria vaginalis (Burm. f.) Presl var. plantaginea (Roxb.) Solms-Laub. [3] | Herbicidal effects index, Echinochloa oryzicola Vasing [4] | Herbicidal effects index, Scirpus juncoides Roxb. var. ohwianus. T. Koyama [5] | herbicidal effect (index) on Amaranthus viridis L. [6] | herbicidal effect (index) on Abutilon theophrasti medicus [7] | herbicidal effect (index) on Echinochloa crus-galli (L.) P. Beauv. var. crus-galli [8] | herbicidal effects on Amaranthus viridis L. [6] | herbicidal effects on Abutilon theophrasti medicus [7] | herbicidal effects on Echinochloa crus-galli (L.) P. Beauv. var. crus-galli [8]
1 | Cc1cc(-n2c(=O)c(C(=O)C3=C(O)CCCC3=O)nc3ccccc32)sn1 [I-156] | 5 | 5 | 5 | 5 | 5 | 5 | 5 | 5 |  |  | 
2 | O=C1CCCC(O)=C1C(=O)c1nc2ccccc2n(-c2cccc(F)c2)c1=O [II-7] | 5 | 5 | 5 | 5 | 5 | 5 | 5 | 5 |  |  | 
3 | CC1(C)CCC(=O)C(C(=O)c2nc3cccnc3n(-c3cccc(C(F)(F)F)c3)c2=O)=C1O [IV-40] | 5 | 5 | 5 | 5 | 5 |  |  |  | 5 | 5 | 5
4 | N#CCCn1c(=O)c(C(=O)C2=C(O)CCCC2=O)nc2ccccc21 [Compound I-103] | 5 | 5 | 5 | 5 | 5 | 5 | 5 | 5 |  |  | 
5 | CC1(C)CC(=O)C(C(=O)c2nc3cccnc3n(-c3cccc(C(F)(F)F)c3)c2=O)=C(O)C1 [IV-41] | 5 | 5 | 5 | 5 | 5 |  |  |  | 5 | 5 | 5
6 | Cc1ccc(-n2c(=O)c(C(=O)C3=C(O)CCCC3=O)nc3ccccc32)c(Cl)c1 [II-215] | 5 | 5 | 5 | 5 | 5 |  |  |  | 5 | 5 | 5
7 | Cc1cc(-n2c(=O)c(C(=O)C3=C(O)CCCC3=O)nc3cc(F)ccc32)no1 [I-281] | 5 | 5 | 5 | 5 | 5 | 5 | 5 | 5 |  |  | 
8 | CS(=O)(=O)c1ccc(-n2c(=O)c(C(=O)C3=C(O)CCCC3=O)nc3ccccc32)cc1 [II-125] | 5 | 5 | 5 | 5 | 5 |  |  |  | 5 | 5 | 5
9 | O=C1CCCC(O)=C1C(=O)c1nc2cccnc2n(-c2ccc(Br)cc2)c1=O [IV-18] | 5 | 5 | 5 | 5 | 5 |  |  |  | 5 | 5 | 5
10 | COc1ccc2nc(C(=O)C3=C(O)CCCC3=O)c(=O)n(-c3ccccc3)c2c1 [II-252] | 5 | 5 | 5 | 5 | 5 |  |  |  | 5 | 5 | 5
11 | CCn1c(=O)c(C(=O)C2=C(O)CCCC2=O)nc2cccnc21 [III-7] | 5 | 5 | 5 | 5 | 5 |  |  |  | 5 | 5 | 4
12 | COc1ccc(-n2c(=O)c(C(=O)C3=C(O)C(C)(C)CCC3=O)nc3ccccc32)cc1 [II-63] | 5 | 5 | 5 | 5 | 5 |  |  |  | 5 | 4 | 5
13 | O=C(C1=C(O)C2CCC(C2)C1=O)c1nc2ccccc2n(-c2ccc(Cl)cc2)c1=O (stereo not drawn) [II-14] | 5 | 5 | 5 | 5 | 5 |  |  |  | 5 | 4 | 5
14 | COCCn1c(=O)c(C(=O)C2=C(O)CCCC2=O)nc2cccc(Cl)c21 [I-230] | 5 | 4 | 5 | 5 | 5 | 5 | 5 | 5 |  |  | 
15 | N#Cc1cccc(-n2c(=O)c(C(=O)C3=C(O)CCCC3=O)nc3ccccc32)c1 [II-136] | 5 | 5 | 5 | 5 | 5 |  |  |  | 5 | 5 | 5
